ED50 and IC50 data for 52 molecules are collected here from patent US20060293343A1, “Pyrimidine derivatives” (Asahi Kasei Pharma Corporation, priority 2005, published 2006).

SMILES strings stand for the structures.

Test [1] relates to TNF-α production induced by LPS. Nature of the test: Inhibitory action of TNF-α production (in vivo) induced by LPS using mouse. The following applies: C3H/He mouse; orally administered 60 minutes before LPS 10 μg intraperitoneally; plasma TNF-α 90 minutes after LPS; read-out: ED50 (mg/kg), suppression action of TNF-α production. On the procedure:
C3H/He mouse (manufactured by Japan SLC Co., male) was used as a test animal. A desired concentration of the test sample was suspended in 0.5% methyl cellulose solution. The weight of the mouse was measured, and the test compound solution was orally administered at a dosage of 10 mL/kg while only 0.5% methyl cellulose was administered to the reference group. One group contained 5 to 7 mice. LPS was dissolved in physiological saline, and 10 μg was intraperitoneally administered to each mouse. The test compound was administered first, then LPS was administered 60 minutes thereafter. After 90 minutes, the blood was sampled from the large abdominal vein with the heparin, and a plasma was obtained by centrifugation. The content of TNF-α in the plasma was measured according to the protocol attached to TNF-α ELISA kit (manufactured by R & D System Co.). […] The suppression action of TNF-α production was represented by ED50 (mg/kg). Ex. No. in Table 11 denotes the example No.

The test system of test [2] is T1, PDE4.
T1 construct: The PDE4 enzyme was purified from U937 cells that are the cells derived from lymphoma
Briefly: Inhibitory action of PDE4 enzyme activity (PDE4 purified from U937 cells). Type of test: biochemical. The following applies: PDE4 fraction purified from U937 cells; [3H]-cAMP substrate; 30° C., 10 minutes. On the procedure: (1) Purification of PDE4 from U937 Cells
The PDE4 enzyme was purified from U937 cells that are the cells derived from lymphoma. U937 cells were suspended in buffer solution A (20 mM Tris-HCl(pH 6.5), 1 mM MgCl2, 0.1 mM EGTA, 3 mM 2-mercaptoethanol) containing protease. inhibitor cocktail (manufactured by Sigma Co.), and a soluble fraction was obtained by centrifugation after ultrasonic disintegration (100,000 G, 30 minutes, 4° C.). […] Each fraction was tested for the cAMP metabolized PDE activity to identify the fractions containing PDE4 enzyme.
(2) Measurement of Inhibitory Activity of PDE4 Enzyme Activity
A desired concentration of the test compound was allowed to react in a reaction mixture (100 μL; 40 mM Tris-HCl (pH 7.4), 5 MM MgCl2, 4 mM 2-mercaptoethanol, […] cAMP, 0.83 μCi [^3H]-cAMP and PDE4 fraction) at 30° C. for 10 minutes. The enzyme reaction was stopped by adding 25 μL of trichloroacetic acid to the reaction mixture. The reaction solution was charged on a neutral alumina column equilibrated with 0.1 M of 2-[[tris(hydroxylmethyl)methyl]-amino]-1-ethanesulfonic acid (TES) buffer (pH 8.0) and, after washing the column with a sufficient amount of 0.1 M TES buffer solution, the column was eluted with 2N NaOH. A 500 μL aliquot of the eluate containing [^3H]-5′AMP product was filled in a scintillation vial containing the scintillation cocktail (5 ml, manufactured by Perkin Elmer Co.) to measure radioactivity. […] The inhibitory action of PDE4 enzyme activity was expressed by IC50 (nM). Ex. No. in Table 8 denotes the example No.

The test system of test [3] is TNF-α production in LPS-stimulated mouse mononuclear cells. Nature of the test: Inhibitory action of TNF-α production using mouse mononuclear cells (in vitro). The conditions noted are these: mouse mononuclear cells from peripheral blood of C3H/He mouse; LPS 5 μg/mL, 21 hours; TNF-α ELISA; read-out: IC50 (nM), suppression action of TNF-α production. Type of test: cell-based. On the procedure: Mouse mononuclear cells were isolated from the peripheral blood of C3H/He mouse (manufactured by Japan SLC Co., male), and were suspended in a culture medium (trade name RPMI 1640 manufactured by Gibco Co.) containing 10% bovine serum. The cells were seeded in a 96 well plate as 50,000 cells/well, the test compound was added at a desired concentration, and the plate was allowed to stand in an incubator containing 5% CO2 at .37° C. for 15 minutes. LPS was added thereafter at a final concentration of 5 μg/mL, and the plate was allowed to stand in the incubator for 21 hours.
The culture medium containing produced TNF-α was retrieved, and the amount of TNF-α was measured according to the protocol attached to mouse TNF-α ELISA kit (manufactured by R & D Systems Co.). […] The suppression action of TNF-α was expressed-by […] (nM). Ex. No. in Table 9 denotes the example No.
On the technique in general: In an ELISA, binding on a coated surface is turned into a signal by an enzyme label.

Broadly, the IC50 is the concentration needed to halve the response being measured.

With `CCc1c(C)nc(-c2cc(C)c(I)s2)nc1Nc1ccc(CC(=O)O)cc1` [Example 292], the ED50 in test [1] was 25 mg/kg.

With `C=CCc1c(C)nc(-c2cccs2)nc1Nc1ccc2cc(C(=O)O)ccc2c1` [Example 3], the IC50 in test [2] is 356 nM; in test [3], 1900 nM.

`CCc1c(C)nc(-c2cccs2)nc1Nc1ccc(CC(=O)NO)cc1` [Example 116]: the ED50 in test [1] was determined as 12 mg/kg. Further, the IC50 in test [3] came to 10 nM.

On to `C=CCc1c(C)nc(-c2ccoc2)nc1Nc1ccc2cc(C(=O)O)ccc2c1` [Example 23], for which the IC50 was 633 nM in test [2] and 2110 nM in test [3].

For the molecule `CCc1c(C)nc(-c2ccc(C)s2)nc1Nc1ccc(CC(=O)O)cc1` [Example 205], the ED50 in test [1] worked out at 21 mg/kg.

Take `C=CCc1c(C)nc(-c2ccc(Br)s2)nc1Nc1ccc(CC(=O)O)cc1` [Example 241]: in test [1], the ED50 came to 39 mg/kg.

On to `CCc1c(C)nc(-c2ccoc2)nc1Nc1ccc2cc(C(=O)O)ccc2c1` [Example 26], for which the IC50 in test [2] was determined as 312 nM; in test [3], 219 nM.

Turning to `CCc1nc(-c2cc(C)c(Br)s2)nc(Nc2ccc(CC(=O)O)cc2)c1CC` [Example 239], in test [1], the ED50 was found to be 22 mg/kg.

In the case of `C=CCc1c(CC)nc(-c2cc(OC)cs2)nc1Nc1ccc2cc(C(=O)O)ccc2c1` [Example 185], it took 156 nM to reach half-maximal inhibition in test [2] (IC50).

As to `CCc1c(C)nc(-c2ccc(Br)s2)nc1Nc1ccc(CC(=O)NO)cc1` [Example 192], inhibition in test [2] was half-maximal at 89 nM (IC50).

`C=CCc1c(CC)nc(-c2ccc(OC)s2)nc1Nc1ccc(C(=O)O)cc1` [Example 54]: in test [3], the IC50 amounted to 239 nM.

For the molecule `C=CCc1c(CCC)nc(-c2ccsc2)nc1Nc1ccc(C(=O)O)cc1` [Example 68], the IC50 in test [3] is 247 nM.

As to `CCc1nc(-c2ccoc2)nc(Nc2ccc(C(=O)O)cc2)c1CC` [Example 86], the ED50 in test [1] amounted to 8 mg/kg. Also, in test [3], the IC50 came out at 67 nM.

Take `CCc1nc(-c2ccco2)nc(Nc2ccc(C(=O)O)cc2)c1CC` [Example 186]: the half-inhibitory concentration (IC50) in test [3] turned out to be 80 nM.

In the case of `CCc1c(C)nc(-c2cccs2)nc1Nc1ccc(CC(=O)Nc2ccccc2OC)cc1` [Example 113], the IC50 in test [3] was 34 nM.

Turning to `CCc1c(C)nc(-c2ccc(F)s2)nc1Nc1ccc(CC(=O)O)cc1F` [Example 376], the ED50 in test [1] is 12 mg/kg.

Consider `CCc1nc(-c2cccs2)nc(Nc2ccc3cc(C(=O)O)ccc3c2)c1CC` [Example 85], for which the IC50 in test [2] was found to be 76 nM; in test [3], 29 nM.

With `CCc1c(C)nc(-c2cccs2)nc1Nc1ccc(C(=O)O)cc1` [Example 5], the IC50 was 1390 nM in test [2] and 265 nM in test [3].

Turning to `Cc1nc(-c2ccc(Cl)s2)nc(Nc2ccc(CC(=O)O)cc2)c1CO` [Example 386], the ED50 in test [1] came to 50 mg/kg.

Turning to `C=CCc1c(C)nc(-c2cc(C)c(Br)s2)nc1Nc1ccc(CC(=O)O)cc1` [Example 274], in test [1], the ED50 came out at 25 mg/kg.

On to `C=CCc1c(CC)nc(-c2ccoc2)nc1Nc1ccc(C(=O)O)cc1` [Example 103], for which the ED50 in test [1] turned out to be 37 mg/kg.

`C=CCc1c(CC)nc(-c2ccoc2)nc1Nc1ccc2cc(C(=O)O)ccc2c1` [Example 105]: the IC50 in test [2] stood at 116 nM.

For `CCc1c(C)nc(-c2ccc(Cl)s2)nc1Nc1ccc(CC(=O)O)cc1` [Example 253], the ED50 in test [1] came to 14 mg/kg. The IC50 in test [3] was 504 nM.

Take `CCc1nc(-c2ccc(Br)s2)nc(Nc2ccc(C(=O)O)cc2)c1CC` [Example 220]: the ED50 in test [1] amounted to 41 mg/kg. Moreover, in test [3], the concentration for half-maximal inhibition (IC50) was determined as 59 nM.

On to `CCc1nc(-c2ccc(C)s2)nc(Nc2ccc(CC(=O)O)cc2)c1CC` [Example 110], for which the ED50 in test [1] amounted to 31 mg/kg.

`CCc1c(C)nc(-c2ccoc2)nc1Nc1ccc(C(=O)O)cc1` [Example 24]: the IC50 is 3250 nM in test [2] and 865 nM in test [3].

Regarding `CCc1c(C)nc(-c2ccc(SC)s2)nc1Nc1ccc2cc(C(=O)O)ccc2c1` [Example 79], the IC50 in test [2] came out at 117 nM.

For `CCc1nc(-c2ccc(OC)s2)nc(Nc2ccc3cc(C(=O)O)ccc3c2)c1CC` [Example 82], the IC50 was 90 nM in test [2] and 57 nM in test [3].

For the molecule `CCc1nc(-c2ccc(SC)s2)nc(Nc2ccc(CC(=O)O)cc2)c1CC` [Example 128], the ED50 in test [1] is 24 mg/kg.

As for `CCc1c(C)nc(-c2cc(Br)cs2)nc1Nc1ccc(CC(=O)NO)cc1` [Example 193], the half-inhibitory concentration (IC50) in test [2] was found to be 70 nM; in test [3], 39 nM.

For the molecule `CCc1nc(-c2ccc(C)s2)nc(Nc2ccc3cc(C(=O)O)ccc3c2)c1CC` [Example 111], in test [1], the ED50 came to 15 mg/kg. Also, in test [3], the 50% inhibitory concentration (IC50) came to 58 nM.

On to `CCc1nc(-c2ccc(SC)s2)nc(Nc2ccc3cc(C(=O)O)ccc3c2)c1CC` [Example 129], for which the IC50 in test [3] came out at 85 nM.

With `CCc1nc(-c2ccc(Cl)s2)nc(Nc2ccc(CC(=O)O)cc2)c1CC` [Example 289], in test [1], the ED50 amounted to 18 mg/kg.

As for `C=CCc1c(CC)nc(-c2ccco2)nc1Nc1ccc2cc(C(=O)O)ccc2c1` [Example 191], the IC50 in test [2] was found to be 90 nM; in test [3] it was 44 nM.

In the case of `CCc1c(C)nc(-c2cccs2)nc1Nc1ccc(CC(=O)O)cc1F` [Example 344], the ED50 in test [1] turned out to be 27 mg/kg.

`CCc1ccc(-c2nc(CC)c(CC)c(Nc3ccc4cc(C(=O)O)ccc4c3)n2)s1` [Example 198]: the IC50 in test [2] was 105 nM.

Consider `CCc1nc(-c2ccc(Br)s2)nc(Nc2ccc(CC(=O)O)cc2)c1CC` [Example 221], for which, in test [1], the ED50 is 24 mg/kg. Also, in test [3], the IC50 was determined as 53 nM.

Regarding `CCc1nc(-c2cc(C)c(Br)s2)nc(Nc2ccc(C(=O)O)cc2)c1CC` [Example 238], the ED50 in test [1] came to 20 mg/kg.

On to `CCCc1nc(-c2ccsc2)nc(Nc2ccc3cc(C(=O)O)ccc3c2)c1CC` [Example 73], for which the half-inhibitory concentration (IC50) in test [3] was found to be 211 nM.

Molecule `C=CCc1c(CC)nc(-c2ccc(C)s2)nc1Nc1ccc2cc(C(=O)O)ccc2c1` [Example 209] yielded an IC50 in test [2] of 192 nM.

Consider `CCc1c(C)nc(-c2ccc(I)s2)nc1Nc1ccc(CC(=O)O)cc1F` [Example 345], for which the ED50 in test [1] was found to be 37 mg/kg.

Turning to `CCc1c(C)nc(-c2ccc(F)s2)nc1Nc1ccc(CC(=O)O)cc1` [Example 373], in test [1], the ED50 turned out to be 19 mg/kg.

For the molecule `CCc1c(C)nc(-c2ccc(C(=O)OC)s2)nc1Nc1ccc(C(=O)O)cc1` [Example 50], the IC50 in test [3] is 249 nM.

Regarding `CCc1nc(-c2cc(C)c(C)o2)nc(Nc2ccc3cc(C(=O)O)ccc3c2)c1CC` [Example 157], the IC50 in test [3] was 80 nM.

`CCc1c(C)nc(-c2ccc(Br)s2)nc1Nc1ccc(CC(N)=O)cc1` [Example 181]: in test [3], the IC50 was 57 nM.

Turning to `CCc1nc(-c2cc(C)c(C)s2)nc(Nc2ccc3cc(C(=O)O)ccc3c2)c1CC` [Example 155], in test [2], the IC50 was 845 nM.

In the case of `CCc1c(C)nc(-c2ccc(OC)s2)nc1Nc1ccc(CC(=O)NO)cc1` [Example 203], the IC50 in test [3] came to 86 nM.

Turning to `CCc1nc(-c2cc(C)c(I)s2)nc(Nc2ccc(CC(=O)O)cc2)c1CC` [Example 293], the ED50 in test [1] was found to be 18 mg/kg.

In the case of `C=CCc1c(CC)nc(-c2ccc(CC)s2)nc1Nc1ccc2cc(C(=O)O)ccc2c1` [Example 201], it took 133 nM to reach half-maximal inhibition in test [2] (IC50).

With `C=CCc1c(C)nc(-c2ccc(Cl)s2)nc1Nc1ccc(CC(=O)O)cc1` [Example 254], the ED50 in test [1] is 38 mg/kg.

Turning to `CCc1nc(-c2ccc(OC)s2)nc(Nc2ccc(C(=O)O)cc2)c1CC` [Example 80], the IC50 in test [3] came to 73 nM.

`CCc1nc(-c2ccc(Cc3ccccc3)s2)nc(Nc2ccc3cc(C(=O)O)ccc3c2)c1CC` [Example 234]: the IC50 in test [3] came out at 48 nM.
